# From patent US7361638B2, “Pharmaceutical combination for the treatment of tissue damage owing to an arterial irrigation defect” (Centro de Ingenieria Genetica y Biotecnologia, priority 2001, dated 2008)
# “Also recorded” adds a separate entry of the source. Marks after values point to notes of the source that are not given here. Non-standard residues stand in square brackets, D forms with d. No end group written: not given here.
# Tests used:
# [1] = test system: gastric mucosa of animals exposed to a severe systemic stress; assay: Acute gastric stress damage model (cold swim and restraint); type: in vivo, OF-1 mice
# Description: Adult, male OF-1 mice (20-23 g) were randomly assigned to receive GHRP-6 (0.1 μg/animal) or normal saline solution 0.9% (both i.p.). Ten to thirty minutes later animals were forced to swim in cold water for 30 minutes and later restrained for another 20 minute period at 4° C. Animals were thereafter anesthetized and euthanized for gastric mucosa inspection. Samples were fixed in 10% buffered formalin and H&E, and PAS stained for microscopic examination. Erosion, hemorrhage, and ulceration were the gross pathology criteria considered in the experiment (Playford RJ. Peptides and gastrointestinal mucosa integrity. Gut 1995, 37: 595-597). Microscopic ulceration was only considered when deeper than the first third of the glandular mucosa. Luminal bleeding was studied by measuring hemoglobin by the cyano metahemoglobin method (Reactivos Spinreact, Barcelona). Data were expressed in g/dL. All determinations were done in a blind fashion using a sham group.
# [2] = test system: rat model of renal bilateral ischemia/reperfusion; assay: Renal bilateral ischemia/reperfusion, first phase (1 hour ischemia, 3 hour reperfusion); type: in vivo, Wistar rats; settings: 1 h ischemia, 3 h reperfusion; for Glomerular Filtration Rate / Renal Plasmatic Flow / Urine output during the reperfusion period: EGF 20 μg; for Glomerular Filtration Rate / Renal Plasmatic Flow: GHRP-6 50 μg, combination EGF 5 μg + GHRP-6 10 μg per rat i.p.; for Urine output during the reperfusion period: i.p. 30 min before ischemia, GHRP 50 μg, combination EGF 5 μg + GHRP-6 10 μg per rat, mean and SD; for Renal failure / oliguria, result in words: versus saline-treated ischemic controls
# Description: The potential nephroprotective effects of each of the peptides alone or in combination was studied in a rat model of renal bilateral ischemia/reperfusion. In a first phase trial, a ischemia period of 1 hour followed by a 3 hour reperfusion period was established. Female Wistar rats (200-220 g) were randomly assigned to the following experimental groups (N=10):
# Group II: Ischemic and normal saline solution 0.9%.
# Group IV: Ischemic and GHRP −6-50 μg/rat.
# All the treatments were intraperitoneally administered 30 minutes before ischemia.
# (§1) Renal arteries were clamped with microvascular clamps (Moria, Fine Science Tools, USA) for 60 minutes. After 3 hours of reperfusion the animals were monitored for another 30 minutes to establish renal functioning.
# (§2) Glomerular filtration rate (GFR) and the renal plasmatic flow (RPF) were studied using molecular weight markers as inulin and p-amino hypuric. Clearance coefficients were determined as follows:
# Uv(m) maximal urine volume per minute. […]
# (§3) A catheter was fixed in the urinary bladder and the urethra was clamped. The free end of the catheter was inserted in a graduated tube and the urine volume was collected during 10 minutes.
# Renal tissue samples were homogenized in KCI/histidine (pH7.3) buffer and the supernatant was used to measure the activity of the enzymes PLA2, catalase, as the MDA reactive metabolite.
# Renal tissue samples were fixed in 10% buffered formalin, paraffin embedded, H&E stained and studied by independent pathologists using the following criteria: number of collapsed glomeruli, cortical hemorrhage, medullar hemorrhage, severe tubular damage, and severe interstitial damage. […] GHRP-6 intervention increased urine formation 4 times as compared to saline treated animals, which argues in favor of renal functional protection.
# [3] = test system: rat model of renal bilateral ischemia/reperfusion; assay: Renal ischemia/reperfusion, second phase (3 hours ischemia, similar reperfusion time); type: in vivo, Wistar rats; settings: 3 h ischemia; for Urine output during the reperfusion period: EGF 20 μg, GHRP 50 μg, combination, mean and SD
# Description: as §1, §2, §3
# Renal tissue samples were fixed in 10% buffered formalin, paraffin embedded, H&E stained and studied by independent pathologists using the following criteria: number of collapsed glomeruli, cortical hemorrhage, medullar hemorrhage, severe tubular damage, and severe interstitial damage.
# During a second phase study, a larger ischemia period was introduced which allowed for studying the effect of the peptide in a more practical model with respect to the clinical practice. Kidneys were exposed to a 3 hours ischemia period and a similar reperfusion time.
# [4] = test system: Intestinal Ischemia/Reperfusion Model; assay: Intestinal ischemia/reperfusion model (2 hours ischemia, 3 hours reperfusion); type: in vivo, Sprague Dawley rats; settings: 2 h ischemia, 3 h reperfusion
# Description: Male Sprague Dawley (220-250 g) rats were randomly assigned to the following treatment groups: I: ischemia/normal saline. […] III: Ischemia/GHRP-6 100 μg/rat. IV: Ischemia/combination -EGF (5 μg)/GHRP-6 (2 μg)/rat. All the treatments were intraperitoneally administered 30 minutes prior to beginning the ischemia period. […] The artery was clamped for a period of 2 hours, thus provoking a severe ischemia time on the jejunum and ileum portions of the small intestine. Reperfusion was allowed for 3 hours. Rats were euthanized and subjected to complete autopsy. The small intestine was resected and the length of hemorrhagic mucosal and/or luminal damage was registered. Luminal content was flushed out with a standard volume of saline to determine the hemoglobin content. Intestinal mucosa was washed with warm normal saline, weighed and fragments used to determine total protein content by Lowry method. Other fragments were used for total DNA content and microscopic analysis. Villi/mucosal damage was microscopically analyzed as described by Chiu. This scale considers Grade 0 as intact mucosa progressing to Grade 5 as full-thickness denudation.
# [5] = test system: Intestinal Ischemia/Reperfusion Model; assay: Survival after intestinal ischemia/reperfusion, monitored for 96 hours; type: in vivo, Sprague Dawley rats; settings: 96 hours of reperfusion; N = 10; EGF 500 μg, GHRP-6 100 μg, EGF 5 μg + GHRP-6 2 μg
# Description: In order to fully elucidate the protective effect of the combination treatment in this model of intestinal ischemia/reperfusion, survival was monitored until 96 hours of reperfusion.
# A second and independent experiment was conducted in order to learn if the combination stimulated animals' survival. Experimental methodology is as described above. All the rats received an intraperitoneal injection of lactated Ringer following wound closure. Animals were monitored for 96 hours once reperfusion was initiated. […] (Table 9).
# [6] = test system: Experimental Model of Multiple Organ Damage by Extensive Burns; assay: Multiple organ damage by extensive burns (25% body surface scald), intestinal regeneration; type: in vivo, Balb/c mice; settings: for Final weight (body weight) / % Increase of body weight: 10th day following scalding; for Final weight (body weight): after 20 administrations, table prints EGF 0.01 μg, GHRP 0.01 μg, mean and SD, in g (unit assumed); for Crypts depth / No. of crypts in fission (×200) / Villous height / No. of metaphases per crypt (×200): day 10 post-scalding; for % Increase of body weight: initial to final weight; for No. of metaphases per crypt (×200): vincristine 1 mg/kg six hours prior to death
# Description: The dorsal region of Balb/c mice (22-25 g) was depilated and subjected to hypodermic scalding involving a 25% of body surface area, by immersion in equilibrated water at 95-97° C. for 5 seconds. All the mice received 1.5 ml of normal saline solution as fluid resuscitation immediately after. This animal model had been previously established and calibrated in our laboratory, and is useful to our goals as extensive internal changes are steadily reproduced. On the next 24 hours the surviving mice were randomly assigned to the following groups: Reference. Sham burned mice receiving saline 0.9% (N=5). Scalded receiving only normal saline 0.9%. […] Scalded and treated with GHRP-6 (N=9; 0.1 μg GHRP-6/animal). Scalded, treated with the peptide combination (N=10). […] Administrations were done twice a day and until day 10 post-scalding. Once the treatments were completed, animals were weighed again and euthanized for necropsy and microscopic examination. Six hours prior to death, every mouse received an injection of vincristine (1 mg/kg) to arrest cells on metaphase. Intestines were resected, flushed and weighed. Fragments were collected for total DNA and protein content. Other fragments were formalin fixed and used for routine processing or intestinal microdissection of villi and crypts. Morphometric procedures on the microscopic slides were derived from the […] image processing system. The following parameters were considered in this study: Animal weight. Intestinal weight, protein and DNA content. Number of cells in metaphase per crypt. Number of branching crypts. Villous height. Crypts depth.
# [7] = GHRP-6 0.1 μg/animal i.p. 10-30 min before stress, 20 mice per group
# [8] = EGF 500 μg, GHRP-6 100 μg, combination EGF 5 μg + GHRP-6 2 μg per rat i.p.
Substance,Glomerular Filtration Rate [2],Renal Plasmatic Flow [2],Urine output during the reperfusion period [2],"Renal failure / oliguria, result in words [2]","Nephroprotection / urine volume, result in words [3]",Percent of animals/group showing Cortical Hemorrhage [3],Percent of animals/group showing Damaged Glomeruli [3],Percent of animals/group showing Interstitial Damage [3],Percent of animals/group showing Medullar Hemorrhage [3],Urine output during the reperfusion period [3],"Intestinal mucosal protection, result in words [4]",Final weight (body weight) [6],Crypts depth [6],No. of crypts in fission (×200) [6],Villous height [6],% Increase of body weight [6],No. of metaphases per crypt (×200) [6],other results
H[dW]AW[dF]K-NH2 [GHRP-6],0.46 ± 0.23 ml/min/100 g,1.88 ± 0.8 ml/min/100 g,208 ± 47,partially attenuate renal failure,Partial nephroprotection,40♦ percent,60♦ percent,30♦ percent,80%,168 ± 33,partial protection,28.4 ± 1.8,40.8 ± 13 μm,19 ± 6,99.2 ± 10 μm,23%,59 ± 12,"Epithelial Erosion, number of animals [1, 7]: 6; Epithelial Erosion, percent of animals [1, 7]: 30%; Luminal Hemorrhage, number of animals [1, 7]: 0 (0%)*; Luminal Hemorrhage, percent of animals [1, 7]: 0 (0%)*; Mucosal Hemorrhage, number of animals [1, 7]: 0 (0%)*; Mucosal Hemorrhage, percent of animals [1, 7]: 0 (0%)*; Total of ulcers ([1]; GHRP-6 0.1 μg/animal i.p., 20 mice per group): 3*; Luminal hemoglobin ([1]; GHRP-6 0.1 μg/animal i.p., cyano metahemoglobin method): 0* g/dL; Increase of urine formation compared to saline treated animals ([2]; GHRP-6 50 μg/rat i.p.): 4 times; Percent of animals/group showing Tubular Damage [3]: 50♦ percent; Survival (%) [5]: 40%"
"EGF: Epidermal Growth Factor of natural, synthetic or recombinant origins",0.3 ± 0.15 ml/min/100 g,1.2 ± 0.61 ml/min/100 g,114 ± 51,attenuated the oliguria; also recorded: partially attenuate renal failure,negligible and contains hemoglobin,70%,80%,80%,80%,83 ± 21,minimal protection,28.2 ± 3.3,48 ± 9 μm,25 ± 8,118.7 ± 19 μm,27%,101 ± 35,"Glomerular Filtration Rate [3]: 0.24 ± 0.15 ml/min/100 g; Renal Plasmatic Flow [3]: 0.6 ± 0.05 ml/min/100 g; DMA content [4, 8]: 0.4 ± 0.11 µg/cm; Luminal hemoglobin [4, 8]: 3.5 ± 1.02 g/dL; Mucosal Weight [4, 8]: 10.7 ± 4.5 g; Proteins Content [4, 8]: 1.08 ± 0.6 mg/cm; % of intestinal damage ([4]; i.p. 30 min before ischemia, EGF 500 μg, GHRP-6 100 μg, combination EGF 5 μg + GHRP-6 2 μg per rat, mean and SD): 78.7 ± 2.8%"
